Laboratory results from US12662460B2, “Compositions for use for the inhibition of dihydroorotate dehydrogenase” (OHIO STATE INNOVATION FOUNDATION, priority 2019, dated 2026).

What was measured:
MOLM13 = assay: MTS assay for cell growth/viability, MOLM13; format: cell-based; conditions: Homo sapiens, MOLM-13, 96 hours
Method: (§1) MTS assay for cell growth/viability: Mitochondrial activity was measured to determine cell proliferation using an MTS assay ([…]). Metabolically active cells convert MTS tetrazolium salt into a purple formazan product that is soluble in tissue culture medium. The amount of formazan measured at 490 nm absorbance is proportional to the number of proliferating cells. MTS assays in AML cell lines were carried out with 20K cells plated per well in 96-well plates with Cpd3 or brequinar in a dose series ranging from 0.0001 to 10 μM. Triplicate wells were set up for each condition. At 96 hours, the MTS reagent was added and after approximately 4 hours the plates were read in a spectrophotometer.
(§2) Biological Activity. Cell proliferation assays were carried out using the MTS assay described herein using two AML cell lines (i.e., MOLM13 and OCI-AML3) with varied genetic backgrounds. The assays were carried out in a blinded fashion.

OCI-AML3 = assay: MTS assay for cell growth/viability, OCI-AML3; format: cell-based; conditions: Homo sapiens, OCI-AML-3, 96 hours
Method: as §1, §2

recombinant human DHODH = molecular target: T1, recombinant human DHODH (Homo sapiens, UniProt Q02127); assay: DHODH enzymatic assay (DCIP reduction); format: biochemical; conditions: recombinant human enzyme, 25° C.; read-out: h-DHODH IC50
T1 construct: made in house
Method: DHODH Enzymatic Assay: DHODH activity was determined at 25° C. following the reduction of 2,6-dichloroindophenol sodium salt (DCIP) at 600 nm (ε=18 800 M^−1 cm^−1) on a spectrophotometer. The reaction medium used contained 50 mM Tris-HCl, pH 8.0, 0.1% Triton X-100, 0.1 mM LDHO, 0.025 mM CoQ1, and 0.06 mM DCIP. The reaction was started by addition of the enzyme. The inhibitory potency of the compounds was evaluated by measuring the initial velocity of the reaction either in the absence or in the presence of the compounds at the indicated concentrations. The DHODH enzyme used was the recombinant human enzyme prepared as previously described (Hëlène Munier-Lehmann, et al., J. Med. Chem. 2015, 58:860-877).

T1 sequence (Q02127 whole entry): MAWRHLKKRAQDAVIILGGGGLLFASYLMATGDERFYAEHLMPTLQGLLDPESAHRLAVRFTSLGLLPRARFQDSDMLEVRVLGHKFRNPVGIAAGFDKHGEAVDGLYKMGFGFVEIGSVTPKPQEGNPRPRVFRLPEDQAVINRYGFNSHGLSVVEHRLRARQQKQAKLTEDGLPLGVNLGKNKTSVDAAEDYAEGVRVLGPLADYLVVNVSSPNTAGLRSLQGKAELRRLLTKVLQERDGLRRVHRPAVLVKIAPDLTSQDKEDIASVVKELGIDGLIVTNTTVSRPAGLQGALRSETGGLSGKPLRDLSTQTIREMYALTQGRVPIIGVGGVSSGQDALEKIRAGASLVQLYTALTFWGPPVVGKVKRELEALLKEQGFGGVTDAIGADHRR

| IC50 (MOLM13) [nM] | IC50 (OCI-AML3) [nM] | IC50 (recombinant human DHODH) [nM] | Compound |
| --- | --- | --- | --- |
| 5350 | 4320 | 628 | CCOc1ccc(-c2ccc(-c3cc(C(=O)O)c4cc(F)ccc4n3)cn2)cc1 [Cpd1, 2-(6-(4-ethoxyphenyl)pyridin-3-yl)-6-fluoroquinoline-4-carboxylic acid] |
| 571 | 709 | 317 | CCOc1ccc(-c2ccc(-c3cc(C(=O)O)c4cc(F)ccc4n3)nc2)cc1 [Cpd2, 2-(5-(4-ethoxyphenyl)pyridin-2-yl)-6-fluoroquinoline-4-carboxylic acid] |
| – | 3640 | – | CCOc1ccc(-c2cnc(-c3cc(C(=O)O)c4cc(F)ccc4n3)nc2)cc1 [Cpd3, 2-(5-(4-ethoxyphenyl)pyrimidin-2-yl)-6-fluoroquinoline-4-carboxylic acid] |
| – | 2100 | 500 | CCOc1ccc(-c2cnc(-c3cc(C(=O)O)c4cc(F)ccc4n3)cn2)cc1 [Cpd4, 2-(5-(4-ethoxyphenyl)pyrazin-2-yl)-6-fluoroquinoline-4-carboxylic acid] |
| – | > 10000 | 4750 | CCOc1ccc(-c2ccc(-c3cc(C(=O)O)c4cc(F)ccc4n3)nn2)cc1 [Cpd5, 2-(6-(4-ethoxyphenyl)pyridazin-3-yl)-6-fluoroquinoline-4-carboxylic acid] |
| – | > 10000 | 1820 | CCOc1cccc(-c2cnc(-c3cc(C(=O)O)c4cc(F)ccc4n3)nc2)c1 [Cpd6, 2-(5-(3-ethoxyphenyl)pyrimidin-2-yl)-6-fluoroquinoline-4-carboxylic acid] |
| – | > 10000 | 605 | CCOc1cccc(-c2ccc(-c3cc(C(=O)O)c4cc(F)ccc4n3)nn2)c1 [Cpd7, 2-(6-(3-ethoxyphenyl)pyridazin-3-yl)-6-fluoroquinoline-4-carboxylic acid] |
